# Data from publication PMC12179037, “Degradation of beechwood xylan using food-grade bacteria-like particles displaying β-xylosidase from Limosilactobacillus fermentum” (Bioresources and Bioprocessing, 2025).
# Biological target: T1, Xyl-L-CshA (LfXyl43 β-xylosidase with C-terminal CshA anchor) (Limosilactobacillus fermentum, UniProt Z9FCD9CVP2)
# T1 construct: LfXyl43 fused through (GGGGS)3 linker to C-terminal surface anchor CshA of Lactiplantibacillus plantarum SK156; 6xHis tag; pET21b(+), E. coli BL21(DE3)
# T1 sequence (Z9FCD9CVP2 1-551): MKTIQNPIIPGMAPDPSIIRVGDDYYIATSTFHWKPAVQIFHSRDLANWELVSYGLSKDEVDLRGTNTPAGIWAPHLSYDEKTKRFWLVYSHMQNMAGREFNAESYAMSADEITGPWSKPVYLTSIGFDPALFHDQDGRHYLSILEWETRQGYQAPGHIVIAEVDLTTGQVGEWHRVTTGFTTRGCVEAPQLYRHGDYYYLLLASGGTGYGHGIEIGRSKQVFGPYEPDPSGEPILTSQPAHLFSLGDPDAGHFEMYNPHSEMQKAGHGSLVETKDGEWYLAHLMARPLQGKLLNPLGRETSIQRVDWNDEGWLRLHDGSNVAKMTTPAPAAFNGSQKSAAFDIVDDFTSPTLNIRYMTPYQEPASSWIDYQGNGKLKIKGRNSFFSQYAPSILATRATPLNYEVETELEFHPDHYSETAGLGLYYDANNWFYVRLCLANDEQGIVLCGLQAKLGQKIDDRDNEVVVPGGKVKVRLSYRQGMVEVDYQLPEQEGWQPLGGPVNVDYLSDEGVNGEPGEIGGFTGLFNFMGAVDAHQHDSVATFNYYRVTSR
# Experiment: reducing sugar release (DNSA, […] nm); TLC
# Type: biochemical
# Conditions: purified fusion protein immobilised on bacteria-like particles; 2 mM substrate; 50 mM sodium phosphate pH 7.0; 35 °C; 5 min
smiles,measurement,value
OC1OC[C@@H](O[C@@H]2OC[C@@H](O)[C@H](O)[C@H]2O)[C@H](O)[C@H]1O (stereo partly shown) [xylobiose],"reducing sugar release (DNSA, 540 nm); TLC","CshA-L-Xyl and Xyl-L-CshA (i.e., with linker peptide) had higher catalytic activity towards all XOS substrates"
